# According to paper PMC3842960, “Natural Stilbenoids Isolated from Grapevine Exhibiting Inhibitory Effects against HIV-1 Integrase and Eukaryote MOS1 Transposase In Vitro Activities” (PLoS ONE, 2013):
# Tests used:
# [1] = biological target: T1, Mos1 transposase (MOS1) (Drosophila mauritiana, UniProt Q7JQ07); assay: MOS1 in vitro transposition assay (genetic hop experiment); assay type: biochemical, D. mauritiana
# T1 construct: involving the full-length Mos1 transposase (MOS1) was recently solved; made in house
# T1 sequence (Q7JQ07 whole entry): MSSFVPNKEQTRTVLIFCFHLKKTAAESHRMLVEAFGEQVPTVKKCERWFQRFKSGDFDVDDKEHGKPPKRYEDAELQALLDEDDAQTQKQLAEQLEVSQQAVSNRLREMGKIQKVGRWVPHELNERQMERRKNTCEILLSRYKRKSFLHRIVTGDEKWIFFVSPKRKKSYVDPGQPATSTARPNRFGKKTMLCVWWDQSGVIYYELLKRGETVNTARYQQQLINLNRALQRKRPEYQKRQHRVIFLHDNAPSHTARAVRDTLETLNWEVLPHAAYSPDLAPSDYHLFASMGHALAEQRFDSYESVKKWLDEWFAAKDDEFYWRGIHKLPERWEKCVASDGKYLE
# Experimental: The wild type Mos1 transposase (MOS1: 345 amino acids) was produced and purified as a fusion protein linked to the maltose-binding protein by using the pMal-c2 system (New England Biolabs) and following the manufacturer's instructions.
# (§1) In vitro transposition reactions were performed using pBC-3T3 as both the donor DNA and the target, as previously described. Briefly, the basic transposition reaction mixtures contained 10 mM Tris-HCl (pH 9), 50 mM NaCl, 20 mM MgCl2, 0.5 mM EDTA, 5% glycerol, 5 ng/ml BSA, 600 ng pBC-3T3, and 80 nM purified MBP-MOS1 (added last) in a volume of 20 µl. Inhibitors (25 or 10 µM, as specified) or DMSO (2%) were added to the reaction mixtures before the transposase. The reactions were allowed to proceed for 30 min at 30°C. After phenol-chloroform extraction and ethanol precipitation, 10% of the reaction mixture was transformed in electro-competent JM109 E. coli (2 mm cuvette, 1.5 kV in a MicroPulser™BioRad). Appropriate dilutions of each reaction mixture were plated on LB-tetracycline (12.5 µg/ml) agar and LB-chloramphenicol (80 µg/ml) agar to score the transposition rate. The transposition rate was the number of Tet^R colonies divided by the number of Chloram^R plus Tet^R colonies. Each condition was done at least three times in independent experiments.
# To identify the natural stilbenes active on MOS1, the 17 molecules were tested using an in vitro genetic “hop” experiment, which is the most sensitive test available as yet. Purified MOS1 was incubated with the pBC-3T3 plasmid, which was used both as the transposon donor and the target plasmid. This plasmid contains the pBR322 tetracycline resistance gene (without promoter) framed by two Mos1 ITRs. This reconstitutes a pseudo-Mos1 element named 3T3. We took advantage of the fact that the cat gene (present in the pBC backbone) is a hotspot for Mos1 integration. […] Transposition events were recovered by bacterial transformation with selection for tetracycline resistance, as a gain-of-function landmark for transposition. […] Controls correspond to assays performed without molecule but with DMSO, which is routinely used as the solvent. […] To confirm the efficiency of the six molecules, they were similarly assayed at 10 µM ( figure 6B ). Since they appeared to be still active at 10 µM, they were further characterized in order to identify the targeted step of the transposition cycle.
# [2] = biological target: T2, MOS1 (Drosophila mauritiana, UniProt Q7JQ07); assay: MOS1 in vitro activities, overall statements of the discussion; assay type: biochemical, D. mauritiana; details: for activity on MOS1: in vitro assays of MOS1 activities, discussion
# T2 construct: involving the full-length Mos1 transposase (MOS1) was recently solved; made in house
# T2 sequence (Q7JQ07 whole entry): as above
# Experimental: as §1
# Basic excision reaction mixtures contained 10 mM Tris-HCl (pH 9), 50 mM NaCl, 20 mM MgCl2, 0.5 mM EDTA, 0.5 mM DTT, 100 ng BSA, 600 ng of super-coiled pBC-3T3, and 80 nM MBP-MOS1 (added last) in a volume of 20 µl. Molecules (25 or 10 µM, as specified) or DMSO (2%) were added to the reaction mixtures before the transposase. The reactions were allowed to proceed at 30°C for 30 min before 2 µl of stop solution (loading buffer) were added. The reaction mixtures were then incubated at 65°C for 10 min. Each reaction was analysed by overnight electrophoresis at 2.7 V/cm on a TAE-buffered 1% agarose gel with ethidium bromide (0.3 mg/ml). After electrophoresis, the gel was photographed on a transilluminator. ImageGauge 4.22 software (Fujifilm) was used to quantify the bands. Each condition was tested at least twice.
# These assays were performed using pre-cleaved 3′ITRs (PC-ITR), i.e. ITRs in the configuration expected after excision. Double-strand ITRs were obtained by annealing equimolar amounts of 70-NTS-PN (5′[…]3′) and 70-TS-PC (5′[…]3′) single-strand oligonucleotides. Prior to annealing, the transferred strand (70-TS-PC) was 5′-end labelled using T4 polynucleotide kinase (Promega) and γ-^32P-ATP following the manufacturer's instructions. Oligonucleotides were provided by Eurofins MWG Biotech (Germany) or Eurogentec (Belgium). Reaction mixtures containing 10 mM Tris-HCl (pH 9), 50 mM NaCl, 1 mM DTT, 5% glycerol, 100 ng BSA, 100 nM of labelled PC-ITR and 100 nM MBP-MOS1 in a final volume of 20 µl were incubated at 30°C for 30 min. The pBC plasmid (which contained the cat gene, a hot-spot for Mos1 insertion) was then added to 30 ng/µL along with 5 mM MgCl2. Molecules (25 or 10 µM, as specified) or DMSO (2%) were added to the reaction mixtures along with the target DNA to estimate their effect on integration. Reactions were carried out for 3 hours at 30°C. 0.1 mg/ml proteinase K and 0.1% SDS were added to stop the reaction. DNA products were purified by phenol-chloroform extraction and ethanol precipitated using standard techniques. DNA products were resuspended in DNA loading buffer, then separated onto a 1% agarose gel in 1X TAE (Tris Acetate EDTA) buffer. The gel was dried onto a nitrocellulose membrane (Hybond N+, GE Healthcare), scanned using a Storm, and analysed with ImageQuant software. Signals were quantified using ImageQuant software. Efficiency of integration was calculated as the intensity of the integration signal divided by the intensity of free target signal plus integration signal. Each condition was tested at least twice.
# All molecules were also tested in in vitro assays reproducing integration and excision reactions catalysed by MOS1. […] In contrast, E-resveratrol and E-ε-viniferin glucoside, which act more specifically on HIV-1 3′processing reaction, and E-piceid and E-pterostilbene, which is more efficient on the integration reaction, were not active on MOS1.
SMILES,activity against MOS1 in transposition assay ([1]; 10 µM),activity against MOS1 in transposition assay ([1]; 25 µM),activity on MOS1 [2],IC50 ([2]; summary of the discussion) [µM]
Oc1ccc([C@@H]2c3c(O)cc(O)cc3[C@H]3c4c(cc(O)cc4C2C2c4cc(O)cc5c4[C@H](c4cc(O)cc(O)c4[C@H]2c2ccc(O)cc2)[C@@H](c2ccc(O)cc2)O5)O[C@@H]3c2ccc(O)cc2)cc1 (stereo partly shown) [hopeaphenol],still active,active against MOS1,selectively active on MOS1,6 to 8
Oc1ccc([C@@H]2c3c(O)cc(O)cc3[C@H]3[C@H](c4ccc(O)cc4)c4c(O)cc(O)cc4[C@@H]23)cc1 [pallidol],still active,active against MOS1,also active against MOS1 activities,–
